Assay results published in patent publication US11982671B2, “Identification of a T cell epitope of Prevotella copri that induces T cell responses in patients with rheumatoid arthritis” (priority 2016, dated 2024).

Assays:
PBMC from RA patients [1] = experiment: IFN-γ/IL17 Double-Color ELISpot with GNS, FLNA and microbial peptides; format: cell-based, human; details: 24 NORA patients, single peptide 1 μM
Method: Enzyme-linked immunospot (ELISpot) T cell assay. A detailed description of the methods for isolation and identification of HLA-DR presented peptides is given in previous publications (19, 20). In the current study, all non-redundant HLA-DR-presented peptides identified from patient RA1 were synthesized (Mimotopes, Australia) and tested for reactivity in sets of 3 (1 μM of each peptide) with the patient's PBMC using IFN-γ ELISpot assays. […] For testing in larger numbers of patients and control subjects who would have a range of HLA-DR genotypes, the original peptides identified from the patient (shown in bold) and 3 additional promiscuous peptides that were predicted to bind>16 HLA-DR molecules were synthesized and HPLC-purified in the MGH Core Facility. The sequences of the GNS peptides were as follows: 47PNVVLLLTDDQDE59 (SEQ ID NO: 13), 222FEPFFMMIATPAPH235 (SEQ ID NO: 14), 451TYACVRTMSALWNLQ465 (SEQ ID NO: 15), 504NYRLMMLQSCSGPTC518 (SEQ ID NO: 16). The sequences of the FLNA peptides were as follows: 73DGLRLIALLEVLSQKK88 (SEQ ID NO: 17), 118SIKLVSIDSKAIVDG132 (SEQ ID NO: 18), 416VEVVIQDPMGQKG428 (SEQ ID NO: 19), 2446NPAEFVVNTSNAGAG2460 (SEQ ID NO: 20).
To assess microbial sequence homology with the GNS peptide 222FEPFFMMIATPAPH235 (SEQ ID NO: 21), the following microbial peptides were tested: 231KKPFFMMVAMNPPH245 (SEQ ID NO: 22), which was derived from the arylsulfatase protein of Prevotella sp. (WP_062433009.1) and 247DVPFFMMWTTPLPH261 (SEQ ID NO: 23), derived from the N-acetylgalactosamine-6-sulfatase of Parabacteroides sp. (WP_046148720.1).
To evaluate the microbial sequence homology for the FLNA peptide 2446NPAEFVVNTSNAGAG2460 (SEQ ID NO: 24), the following microbial peptides were tested: 133QGFVVKTANAGAL146 (SEQ ID NO: 25), which was derived from an uncharacterized protein of Prevotella sp. (WP_028897633.1) and 90ANFMINVSNAGAL103 (SEQ ID NO: 26), derived from an uncharacterized protein of Butyricimonas sp. (WP_065219401.1). The RA patients' PBMC were stimulated with the pool of peptides or single peptides, and analyzed for reactivity with a human IFN-γ/IL17 Double-Color ELISpot kit (Cellular Technology Limited). All peptides (1 μM) were tested in duplicate wells, as were positive (phytohemagglutinin) and negative (no antigen) control samples. After 5 days, cells were transferred to ELISpot plates coated with IFN-γ/IL17 antibodies, and incubated overnight. Images of wells were captured using ImmunoSpot series 3B analyzer, and spots were counted using ImmunoSpot software. A positive T cell response was defined as 3 standard deviations (SD) above the mean value of healthy control subjects.

PBMC from RA patients [2] = experiment: IFN-γ/IL-17 ELISpot T cell assay with Pc-p27 peptides; format: cell-based, human
Source text: Enzyme-linked immunospot (ELISpot) T cell assay. A detailed description of the methods for isolation and identification of HLA-DR presented peptides is given in Seward et al., 2011. In initial experiments in this study, one microbial peptide (^2KRIILILTVLLAMLGQVAY^20)(SEQ ID NO: 6) derived from a 27 kDa P. copri protein (WP_022121928.1) was identified from the PBMC of one RA patient. This P. copri peptide and 2 additional peptides from the same protein, which were predicted to be promiscuous T cell epitopes (^52DYRGYWTMRYQFDSATVS^69 (SEQ ID NO: 7), ^118EKINSLPTSSTGI^130 (SEQ ID NO: 8)), were synthesized and HPLC-purified in the Core Proteomics Laboratory at MGH. […] Cells were then transferred to Dual Color ELISpot plates coated with IFN-γ/IL17 antibodies (Cellular Technology Limited), and incubated overnight at 37° C. Images of wells were captured using ImmunoSpot series 3B analyzer, and spots were counted using ImmunoSpot software. A positive T cell response was defined as 3 standard deviations (SD) above the mean value of healthy subjects.

[3] = tested on: serum IgG and IgA autoantibodies; experiment: ELISA for serum IgG and IgA anti-GNS and anti-FLNA autoantibodies; format: binding, human; details: for patients with IgA antibody responses >3 SD above HC: 101 RA patients; for patients with IgG antibody responses >3 SD above HC: 101 RA patients (NORA and CRA), serum diluted 50-fold; for IgG antibody responses to citrullinated versus uncitrullinated protein: 46 RA patients, protein citrullinated in vitro with rhPAD4
Method: ELISA for serum IgG and IgA anti-GNS and anti-FLNA autoantibodies. ELISA plates were coated with 0.5 μg/ml of recombinant human N-acetylglucosamine-6-sulfatase (Novoprotein, Summit, N.J.) or filamin A (Novusbio, Littleton, Colo.) overnight at 4° C. Subsequent incubations and washes were performed at room temperature. After washing with phosphate buffered saline with 0.05% Tween-20 (PBST), the plates were blocked with blocking buffer (5% nonfat dry milk in PBST) for one hour. Afterwards, 100 μl of each patient's serum sample (diluted 50-fold) was added in duplicate wells for 1.5 hours, followed by horseradish-peroxidase (HRP)-conjugated goat anti-human IgG (sc-2453, Santa Cruz Biotech) or HRP-conjugated goat anti-human IgA (Bio-Rad, Hercules, Calif.), and then TMB substrate (BD, San Diego, Calif.). For inter-plate standardization, 2 control samples were included with each assay.
In vitro citrullination assay. Human recombinant N-acetylglucosamine-6-sulfatase (2 μg) or filamin A (2 μg) were incubated with rhPAD-4 (400 ng), generously provided by Maximilian Koenig from the laboratory of Felipe Andrade, in 1M Tris (pH 7.6) in presence of 200 mM CaCl2. A negative control reaction was performed substituting 200 mM CaCl2 with 200 mM EDTA. Incubation was performed at 37° C. for 3 hours. Protein citrullination was determined by anti-modified citrulline immunoblotting, according to the recommendations of the manufacturer (Millipore).

## ANFMINVSNAGAL (Butyricimonas sp. Marseille-P2440) [Butyricimonas peptide, peptide from an uncharacterized protein of Butyricimonas sp]
PBMC from RA patients [1]
  patients with T cell reactivity >3SD above the mean values in HC: 29%

## DVPFFMMWTTPLPH (Parabacteroides sp. HGS0025) [Parabacteroides peptide, peptide from N-acetylgalactosamine-6-sulfatase of Parabacteroides sp]
PBMC from RA patients [1]
  patients with T cell reactivity >3SD above the mean values in HC: 25%

## FEPFFMMIATPAPH (listed as Homo sapiens) [GNS peptide, HLA-DR-presented self peptide from N-acetylglucosamine-6-sulfatase]
PBMC from RA patients [1]
  patients with T cell reactivity >3SD above the mean values in HC: 33%

## KKPFFMMVAMNPPH (Prevotella sp. DNF00663) [Prevotella peptide, peptide from arylsulfatase protein of Prevotella sp., homologous to the GNS peptide]
PBMC from RA patients [1]
  patients with T cell reactivity >3SD above the mean values in HC: 38%

## KRIILILTVLLAMLGQVAY (listed as Prevotella copri) [Pc-p27 peptide 1]
PBMC from RA patients [2]; 40 RA patients (39 NORA + RA1), peptide 1 μM, 5 days
  patients whose PBMC secreted IFN-γ >3 SD above the mean value of HC: 42%
PBMC from RA patients [2]; LA patients, peptide 1 μM
  T cell reactivity of PBMC from Lyme arthritis patients: lacked reactivity
PBMC from RA patients [2]; RA patients, FIG. 1D
  patients with IFN-γ response, peptide with or without citrullination: 44%
PBMC from RA patients [2]; patient RA1 PBMC, peptide 1, 2 and 4 μM, background = no antigen
  IFN-γ secreted by patient RA1 T cells relative to background: > 3 times background

## NPAEFVVNTSNAGAG [FLNA peptide]
PBMC from RA patients [1]
  patients with T cell reactivity >3SD above the mean values in HC: 38%

## QGFVVKTANAGAL (Prevotella sp. HUN102) [corresponding Prevotella peptide, peptide from an uncharacterized protein of Prevotella sp., homologous to the FLNA peptide]
PBMC from RA patients [1]
  patients with T cell reactivity >3SD above the mean values in HC: 42%

B1: GNS: recombinant human N-acetylglucosamine-6-sulfatase (Novoprotein) (protein)
chain: VFGVAAGTRRPNVVLLLTDDQDEVLGGMTPLKKTKALIGEMGMTFSSAYVPSALCCPSRASILTGKYPHNHHVVNNTLEGNCSSKSWQKIQEPNTFPAILRSMCGYQTFFAGKYLNEYGAPDAGGLEHVPLGWSYWYALEKNSKYYNYTLSINGKARKHGENYSVDYLTDVLANVSLDFLDYKSNFEPFFMMIATPAPHSPWTAAPQYQKAFQNVFAPRNKNFNIHGTNKHWLIRQAKTPMTNSSIQFLDNAFRKRWQTLLSVDDLVEKLVKRLEFTGELNNTYIFYTSDNGYHTGQFSLPIDKRQLYEFDIKVPLLVRGPGIKPNQTSKMLVANIDLGPTILDIAGYDLNKTQMDGMSLLPILRGASNLTWRSDVLVEYQGEGRNVTDPTCPSLSPGVSQCFPDCVCEDAYNNTYACVRTMSALWNLQYCEFDDQEVFVEVYNLTADPDQITNIAKTIDPELLGKMNYRLMMLQSCSGPTCRTPGVFDPGYRFDPRLMFSNRGSVRTRRFSKHLL
[3]
  patients with IgA antibody responses >3 SD above HC: 16%
  patients with IgG antibody responses >3 SD above HC: 32%
[3]; 106 patients with LA, SpA or CTD, 50 healthy control subjects
  positive IgG antibody responses in patients with other diseases and healthy controls: none

B2: FLNA: recombinant human filamin A (Novusbio) (protein)
chain: GAPGPGPADASKVVAKGLGLSKAYVGQKSSFTVDCSKAGNNMLLVGVHGPRTPCEEILVKHVGSRLYSVSYLLKDKGEYTLVVKWGDEHIPGSPYRVVVP
[3]
  patients with IgA antibody responses >3 SD above HC: 15%
  patients with IgG antibody responses >3 SD above HC: 27%

B3: citrullinated GNS: recombinant GNS citrullinated in vitro with rhPAD-4 (protein)
chain: B1 chain
[3]
  IgG antibody responses to citrullinated versus uncitrullinated protein: higher

B4: citrullinated FLNA: recombinant filamin A citrullinated in vitro with rhPAD-4 (protein)
chain: B2 chain
[3]
  IgG antibody responses to citrullinated versus uncitrullinated protein: not significantly different
